In ChEMBL document CHEMBL2177042, “Design, synthesis, and antidiabetic activity of 4-phenoxynicotinamide and 4-phenoxypyrimidine-5-carboxamide derivatives as potent and orally efficacious TGR5 agonists” (J Med Chem, 2012):

Columns and labels:
Assay type in all cases: ADME, organism-based
[1] = Tmax in Sprague-Dawley rat at 5 mg/kg, po; set-up: dose 5 mg/kg, route oral; details: in vivo
[2] = Plasma concentration in ICR mouse at 50 mg/kg, po after 2.5 hrs; set-up: dose 50 mg/kg, route oral
[3] = Half life in Sprague-Dawley rat at 5 mg/kg, po; set-up: dose 5 mg/kg, route oral; details: in vivo
[4] = Drug level in ICR mouse gall bladder at 50 mg/kg, po after 4.5 hrs; set-up: dose 50 mg/kg, route oral; details: read-out: Drug uptake
[5] = Drug level in ICR mouse bile at 50 mg/kg, po after 1 hr; set-up: dose 50 mg/kg, route oral; details: read-out: Drug uptake
[6] = Drug level in ICR mouse gall bladder at 50 mg/kg, po after 1 hr; set-up: dose 50 mg/kg, route oral; details: read-out: Drug uptake
[7] = Cmax in ICR mouse plasma at 50 mg/kg, po; set-up: dose 50 mg/kg, route oral
[8] = AUC (0 to 4.5 hrs) in ICR mouse plasma at 50 mg/kg, po; set-up: time < 4.5 hr, dose 50 mg/kg, route oral
[9] = Drug level in ICR mouse bile at 50 mg/kg, po after 2.5 hrs; set-up: dose 50 mg/kg, route oral; details: read-out: Drug uptake
[10] = AUC (0 to t) in Sprague-Dawley rat at 5 mg/kg, po; set-up: dose 5 mg/kg, route oral; details: plasma
[11] = Drug level in ICR mouse gall bladder at 50 mg/kg, po after 0.5 hrs; set-up: dose 50 mg/kg, route oral; details: read-out: Drug uptake
[12] = AUC (0 to infinity) in Sprague-Dawley rat at 5 mg/kg, po; set-up: time infinity, dose 5 mg/kg, route oral; details: plasma
[13] = Plasma concentration in ICR mouse at 50 mg/kg, po after 0.5 hrs; set-up: dose 50 mg/kg, route oral
[14] = Cmax in ICR mouse gall bladder at 50 mg/kg, po; set-up: dose 50 mg/kg, route oral
[15] = Cmax in Sprague-Dawley rat at 5 mg/kg, po; set-up: dose 5 mg/kg, route oral; details: in vivo
[16] = Cmax in ICR mouse bile at 50 mg/kg, po; set-up: dose 50 mg/kg, route oral
[17] = AUC (0 to 4.5 hrs) in ICR mouse gall bladder at 50 mg/kg, po; set-up: time < 4.5 hr, dose 50 mg/kg, route oral
[18] = Drug level in ICR mouse gall bladder at 50 mg/kg, po after 2.5 hrs; set-up: dose 50 mg/kg, route oral; details: read-out: Drug uptake
[19] = Plasma concentration in ICR mouse at 50 mg/kg, po after 4.5 hrs; set-up: dose 50 mg/kg, route oral
[20] = Plasma concentration in ICR mouse at 50 mg/kg, po after 1 hr; set-up: dose 50 mg/kg, route oral
[21] = Drug level in ICR mouse bile at 50 mg/kg, po after 4.5 hrs; set-up: dose 50 mg/kg, route oral; details: read-out: Drug uptake
[22] = MRT in Sprague-Dawley rat at 5 mg/kg, po; set-up: dose 5 mg/kg, route oral; details: in vivo
[23] = Drug level in ICR mouse bile at 50 mg/kg, po after 0.5 hrs; set-up: dose 50 mg/kg, route oral; details: read-out: Drug uptake
[24] = AUC (0 to 4.5 hrs) in ICR mouse bile at 50 mg/kg, po; set-up: time < 4.5 hr, dose 50 mg/kg, route oral

**Q.** Which results are given for `Cc1ccc(C)c(Oc2ccncc2C(=O)N2CCN(C3CC3)c3ccccc32)c1`?
**A.** Tmax [1]: 0.9 h; concentration at 2.5 h [2]: 2000 nM; half-life [3]: 1.5 h; concentration at 4.5 h [4]: 217 ng/g; concentration at 1 h [5]: 2100 nM; concentration at 1 h [6]: 393 ng/g; Cmax [7]: 3600 nM; AUC(0-t) at 4.5 h [8]: 3130 ng·h/mL; concentration at 2.5 h [9]: 2000 nM; AUC(0-t) [10]: 147 ng·h/mL; concentration at 0.5 h [11]: 294 ng/g; AUC(0-inf) [12]: 155 ng·h/mL; concentration at 0.5 h [13]: 3100 nM; Cmax [14]: 523 ng/g; Cmax [15]: 56 ng/mL; Cmax [16]: 3700 nM; AUC(0-t) at 4.5 h [17]: 1290 ng·h/mL; concentration at 2.5 h [18]: 306 ng/g; concentration at 4.5 h [19]: 510 nM; concentration at 1 h [20]: 2300 nM; concentration at 4.5 h [21]: 2000 nM; MRT [22]: 2.4 h; concentration at 0.5 h [23]: 1700 nM; AUC(0-t) at 4.5 h [24]: 3380 ng·h/mL
